In PMC8730463, “The human gut symbiont Ruminococcus gnavus shows specificity to blood group A antigen during mucin glycan foraging: Implication for niche colonisation in the gastrointestinal tract” (PLoS Biology, 2021) one finds Kd data, which are given here for two compounds.

Assay [1] concerns the target T1, Ulex Europaeus Agglutinin I (UEA I) (Ulex europaeus, UniProt P22972).
T1 sequence (P22972 1-243): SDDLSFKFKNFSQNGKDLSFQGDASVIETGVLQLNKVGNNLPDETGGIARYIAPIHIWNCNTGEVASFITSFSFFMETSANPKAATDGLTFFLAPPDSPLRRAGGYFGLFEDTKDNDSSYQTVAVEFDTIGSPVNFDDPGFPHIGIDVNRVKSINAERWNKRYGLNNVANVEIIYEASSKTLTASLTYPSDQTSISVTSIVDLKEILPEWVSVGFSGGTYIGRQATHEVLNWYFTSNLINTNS
The assay is described as follows: ITC (control lectin). The assay is classed as binding.

Another assay concerns the target T2, RgGH98.
T2 construct: gene RGna_RS10325; 44–946 aa (N-term GBLD, catalytic domain, C-term domain)
Nature of the assay: crystal structure ([…] Å), ITC and STD NMR. Format: binding, Mediterraneibacter gnavus.

Each structure is given as a SMILES string. pKd: −log10 of the molar value.

In turn, `CC(=O)N[C@H]1C(O)O[C@H](CO)[C@@H](O[C@@H]2O[C@H](CO)[C@H](O)[C@H](O)[C@H]2O[C@@H]2O[C@@H](C)[C@@H](O)[C@@H](O)[C@@H]2O)[C@@H]1O` (some centres unmarked) [BgH, blood group H trisaccharide] showed a pKd in assay [1] of 4.99.

`CC(=O)N[C@H]1[C@@H](O[C@H]2[C@@H](O)[C@@H](CO)O[C@@H](O[C@H]3[C@H](O)[C@@H](NC(C)=O)C(O)O[C@@H]3CO)[C@@H]2O[C@@H]2O[C@@H](C)[C@@H](O)[C@@H](O)[C@@H]2O)O[C@H](CO)[C@H](O)[C@@H]1O` (some centres unmarked) [BgA II, blood group A tetrasaccharide type II] showed a pKd at RgGH98 of 3.31.
